Assay results taken from BindingDB's records for doi:10.1016/j.bmcl.2017.03.037 (Rigel Pharmaceuticals, 2017).
pEC50: −log10 of the molar value.

Experiment: Induction of nuclear translocation of human GFP-tagged NFATc1 expressed in virus infected primary human skeletal muscle myoblasts after 3 hrs by DAPI staining based assay
For Clc1cnccc1-c1c[nH]c2cnccc12, the pEC50 was 5.27.
Cc1cc(-c2c[nH]c3cnccc23)ccn1 showed a pEC50 of 4.68.
Work on COCCn1cc(-c2ccncc2)c2ccncc21 yielded a pEC50 of 5.16.
In the case of c1cc(-c2cn(CCC3CC3)c3cnccc23)ccn1, the pEC50 was 5.80.
CC(C)n1cc(-c2ccncc2)c2ccncc21 showed a pEC50 of 6.51.
For COc1cccc2c(-c3ccnc(N)n3)c[nH]c12, the pEC50 was 5.01.
In the case of Fc1cc(-c2c[nH]c3cnccc23)ccn1, the pEC50 was 5.31.
For N#Cc1cccc2c(-c3ccnc(N)n3)c[nH]c12, the pEC50 was 4.66.
Nc1nccc(-c2c[nH]c3cnccc23)n1 gave a pEC50 of 5.32.
Compound c1ccc2c(-c3c[nH]c4cnccc34)ccnc2c1 has a pEC50 of 4.37.
Work on c1cc(-c2c[nH]c3cnccc23)ccn1 yielded a pEC50 of 5.53.
Work on Fc1ccc(Cn2cc(-c3ccncc3)c3ccncc32)cc1 yielded a pEC50 of 5.12.
In the case of c1cc(-c2cn(CCCN3CCOCC3)c3cnccc23)ccn1, the pEC50 was 5.16.
Compound Cn1cc(-c2ccncc2)c2ccncc21 has a pEC50 of 5.66.
